Measured values: article PMC8903829 (eLife, 2022)
pEC50: −log10 of the molar value. Where “and” joins values, the source holds several entries; their conditions need not be identical. Equal entries are not always repeated. Where two headings read alike, the source gives them in different places.

Assays:
wild-type mice (CF-1) = test: DC-Maximal electroshock seizure assay (DC-MES); type: in vivo, mouse; conditions: for WT mouse DCMES Chronic, Fraction of animals seizing: day 7, 2 h after 13th dose; for WT mouse DCMES acute, Fraction of animals seizing: 2 h
Protocol: (§1) Phenytoin was formulated in physiologic saline and was administered intraperitoneally (i.p.) using a 25-gauge needle at a dose volume of 10 mL/kg. All compounds were administered 2 hr prior to electrical seizure induction for all seizure models employed in this study.
(§2) The maximal electroshock seizure (MES) assay has been extensively used in the search for anticonvulsant substances ([Löscher et al., 1991]; [Piredda et al., 1985]; [White et al., 1995]). The MES assay is sensitive to nonselective NaV inhibitors. It is considered a model for generalized tonic-clonic (GTC) seizures and provides an assessment of seizure spread. Briefly, an electroshock of direct current (DC) was delivered by corneal electrodes (Electro Convulsive Therapy Unit 57,800 from Ugo Basile). The parameters of stimulation were different between mice and rats. In CF1 mice aged 9–12 weeks, a direct current of 50 mA (60 Hz) was delivered for 0.2 s (pulse width of 0.5ms), whereas in Sprague Dawley (SD) rats aged 5–6 weeks, a direct current of 150 mA (60 Hz) was delivered for 0.3 s (pulse width of 0.5ms). Immediately prior to the electroshock, the animals’ eyes were anesthetized with a drop of Alcaine (0.5% proparacaine hydrochloride).
(§3) An animal was considered protected in the assay in the absence of a GTC with hindlimb extension and is then scored ‘0’. An animal displaying GTC with hindlimb extension was considered not protected and is then scored ‘1’. The experimenter scoring the seizure behavior was blinded to the treatment.

[1] = tested on: wild-type Sprague Dawley rats; test: DC-Maximal electroshock seizure assay (DC-MES); type: in vivo, rat; conditions: for WT rat DC-MES, fraction of animals seizing: sheet Figure 5G, 5H, 5I (rats)
Protocol: as §1, §2, §3

Sprague Dawley rats = test: Observation of potential adverse behavior (behavioral signs) in the rat DC-MES studies; type: in vivo; conditions: rat
Protocol: Animals were observed by the scientist(s) responsible for dosing for the first 30 min after dosing for and again at the time of assay (2 hr post dose) for signs of abnormal behavior.

[2] = Bioanalytical assessment of plasma and brain concentrations after mouse DC-MES assay; type: in vivo; conditions: WT mice; for concentration at 2 h: mouse, po
Protocol: Approximately 0.5 mL of blood was collected from each mouse at the end of the assay via cardiac puncture under deep anesthesia. The blood samples were collected in a syringe and transferred to tubes containing EDTA. Blood was stored at 4 °C until centrifuged within 30 min of collection. Plasma was harvested and placed on dry ice and stored in a freezer set to maintain a temperature of –70°C to –80°C until analysis. Brains were harvested immediately after blood collection and placed on dry ice prior to storage in a freezer set to maintain a temperature of –70°C to –80°C until analysis.
Extraction of plasma samples was carried out by protein precipitation using acetonitrile. Plasma samples (50 µL) were mixed with 50 µL of internal standard (IS) solution in water followed by addition of 10 µL of concentrated ortho-phosphoric acid and 200 µL of acetonitrile. Samples were vortexed for 30 seconds, centrifuged at 13,000 rpm for 20 min, decanted in to a 96-well plate, and further centrifuged at 4000 rpm for 20 min. The samples were analyzed by UHPLC-ESI-MS/MS as described below.
Prior to extraction, pre-weighed whole brains were homogenized in 1:1 acetonitrile/water (v/v) (4 mL per mouse brain) using an IKA T18 ULTRA-TURRAX Homogenizer at the setting of 4 for approximately 2 min. The homogenate was centrifuged at 13,000 rpm for 20 min and 50 µL of the supernatant were treated exactly as described above for plasma samples. […]
Samples were analyzed by UHPLC-ESI MS/MS using a TQ-5500 Sciex triple quadrupole mass spectrometer equipped with a Shimadzu Nexera UHPLC pump and auto-sampler system using an ACE C18 PFP, 2.50 × 50 mm, 1.7 µm particle size column and gradient elution consisting of solvent A (0.1% formic acid in water) and solvent B (0.1% formic acid in acetonitrile) starting at 20% B from 0 min to 0.4 min and then increased to 100% B from 0.4 min to 0.6 min. At 2.0 min, the mobile phase composition was switched back to […] for 1 min. The flow rate used throughout the experiment was […]. […] The UHPLC-ESI MS/MS system was controlled by Analyst 1.6.
Sample concentrations were determined using a linear calibration function, weighted 1 /X, generated by the regression of analyte to IS peak area ratios in the standard samples to their respective concentrations. Acceptance criteria for the analytical run required that the back calculated values of the standards and the QC samples fell within ±20% of their nominal values, except for the lowest standard or lower limit of quantitation (LLOQ), for which the acceptance criterion was ±25%. At least 6 out of 12 standard points had to show back-calculated values within ±20% of their nominal concentrations for the calibration to be accepted. At least three QC samples, one at each level, had to show back-calculated values within ±20% of their nominal concentrations for the whole sample batch to be valid.

[3] = Bioanalytical assessment of plasma and brain concentrations after rat DC-MES assay; type: in vivo; conditions: sheet Figure 5G, 5H, 5I (rats); for concentration at 2 h: rat, po
[4] = 1 mg/kg PO single dose, 2 hr, 1 mg/kg
[5] = 3 mg/kg PO every 12 hr, day 7, 2 h after 13th dose, 3 mg/kg
[6] = 5 mg/kg PO every 12 hr, day 7, 2 h after 13th dose, 5 mg/kg
[7] = 10 mg/kg PO single dose, 2 h, 10 mg/kg

SMILES: Cc1cc(S(=O)(=O)Nc2cscn2)c(F)cc1N(C)[C@H]1CCN(Cc2ccccc2)C1 [NBI-921352]
- WT mouse DCMES Chronic, Fraction of animals seizing (wild-type mice (CF-1); 3 mg/kg PO every 12 hr): 0.4 and 0.25
- WT mouse DCMES acute, Fraction of animals seizing (wild-type mice (CF-1); 3 mg/kg PO single dose): 0.8 and 0.75 and 0.7143
- WT mouse DCMES Chronic, Fraction of animals seizing (wild-type mice (CF-1); 5 mg/kg PO every 12 hr): 0.25 and 0.2857
- WT mouse DCMES acute, Fraction of animals seizing (wild-type mice (CF-1); 5 mg/kg PO single dose): 0.625 and 0.7143
- WT mouse DCMES Chronic, Fraction of animals seizing (wild-type mice (CF-1); 10 mg/kg PO every 12 hr): 0.2
- WT mouse DCMES acute, Fraction of animals seizing (wild-type mice (CF-1); 10 mg/kg PO single dose): 0.6 and 0.4286 and 0.6667
- WT mouse DCMES acute, Fraction of animals seizing (wild-type mice (CF-1); 30 mg/kg PO single dose): 0.3333 and 0.4 and 0.4286
- WT mouse DCMES acute, Fraction of animals seizing (wild-type mice (CF-1); 100 mg/kg PO single dose): 0.2857
- WT mouse DCMES acute, Fraction of animals seizing (wild-type mice (CF-1); 200 mg/kg PO single dose): 0.1667
- pEC50 (wild-type mice (CF-1); WT mouse DC-MES, 2 hr post dose (oral; phenytoin i.p.), read-out: brain EC50): 6.70
- ED50 (wild-type mice (CF-1); WT mouse DC-MES, oral, 2 hr, read-out: ED50, prevention of GTC with hindlimb extension): 23 mg/kg
- pEC50 (wild-type mice (CF-1); WT mouse DC-MES, read-out: plasma EC50): 6.28
- pEC50 ([1]; WT rat DC-MES (oral; phenytoin i.p.), read-out: plasma EC50): 6.82
- pEC50 ([1]; WT rat DC-MES, 2 hr post dose (oral; phenytoin i.p.), read-out: brain EC50): 7.43
- ED50 ([1]; WT rat DC-MES, oral, 2 hr, read-out: ED50, prevention of GTC with hindlimb extension): 3.7 mg/kg
- WT rat DC-MES, fraction of animals seizing ([1]; 1 mg/kg PO every 12 hr, day 7, 2 hr after 13th dose): 0.4286
- WT rat DC-MES, fraction of animals seizing [1, 4]: 0.75 and 1
- WT rat DC-MES, fraction of animals seizing ([1]; 3 mg/kg PO every 12 hr, day 7, 2 hr after 13th dose): 0.25
- WT rat DC-MES, fraction of animals seizing ([1]; 3 mg/kg PO single dose, 2 hr, 3 mg/kg): 0.6 and 0.5714 and 0.4
- WT rat DC-MES, fraction of animals seizing ([1]; 10 mg/kg PO single dose, 2 hr): 0.1429
- WT rat DC-MES, fraction of animals seizing ([1]; 30 mg/kg PO single dose, 2 hr): 0
- minimal plasma concentration provoking behavioral signs (BSC) (Sprague Dawley rats): 71 µM
- Mean [Brain] [2, 5]: 0.01911 µM
- Mean [Plasma] [2, 5]: 0.01423 µM
- Mean [Plasma] ([2]; 3 mg/kg PO single dose, 2 h, 3 mg/kg): 0.01728 µM and 0.009122 µM
- Mean [Brain] [2, 6]: 0.02064 µM
- Mean [Plasma] [2, 6]: 0.03091 µM
- Mean [Plasma] ([2]; 5 mg/kg PO single dose, 2 h, 5 mg/kg): 0.0212 µM
- Mean [Brain] [2, 7]: 0.05777 µM and 0.08031 µM
- Mean [Plasma] [2, 7]: 0.1016 µM and 0.1012 µM
- concentration at 2 h ([2]; brain, 3 mg/kg, 3 mg/kg PO every 12 hr, day 7, 2 h after 13th dose, read-out: Mean [Brain]): 12.8 nM
- concentration at 2 h ([2]; brain, 5 mg/kg, 5 mg/kg PO every 12 hr, day 7, 2 h after 13th dose, read-out: Mean [Brain]): 37.7 nM
- concentration at 2 h ([2]; brain, 10 mg/kg, 10 mg/kg PO every 12 hr, day 7, 2 h after 13th dose, read-out: Mean [Brain]): 37.7 nM
- concentration at 2 h ([2]; brain, 10 mg/kg, 10 mg/kg PO single dose, 2 h, read-out: Mean [Brain]): 51.9 nM
- concentration at 2 h ([2]; brain, 100 mg/kg, 100 mg/kg PO single dose, 2 h, read-out: Mean [Brain]): 646 nM
- concentration at 2 h ([2]; brain, 200 mg/kg, 200 mg/kg PO single dose, 2 h, read-out: Mean [Brain]): 3880 nM
- concentration at 2 h ([2]; plasma, 3 mg/kg, 3 mg/kg PO every 12 hr, day 7, 2 h after 13th dose, read-out: Mean [Plasma]): 17.7 nM
- concentration at 2 h ([2]; plasma, 3 mg/kg, 3 mg/kg PO single dose, 2 h, read-out: Mean [Plasma]): 11.2 nM
- concentration at 2 h ([2]; plasma, 5 mg/kg, 5 mg/kg PO every 12 hr, day 7, 2 h after 13th dose, read-out: Mean [Plasma]): 43 nM
- concentration at 2 h ([2]; plasma, 5 mg/kg, 5 mg/kg PO single dose, 2 h, read-out: Mean [Plasma]): 36.8 nM
- concentration at 2 h ([2]; plasma, 10 mg/kg, 10 mg/kg PO every 12 hr, day 7, 2 h after 13th dose, read-out: Mean [Plasma]): 151 nM
- concentration at 2 h ([2]; plasma, 10 mg/kg, 10 mg/kg PO single dose, 2 h, read-out: Mean [Plasma]): 94.2 nM
- concentration at 2 h ([2]; plasma, 100 mg/kg, 100 mg/kg PO single dose, 2 h, read-out: Mean [Plasma]): 3330 nM
- concentration at 2 h ([2]; plasma, 200 mg/kg, 200 mg/kg PO single dose, 2 h, read-out: Mean [Plasma]): 34700 nM
- concentration at 2 h ([3]; brain, 1 mg/kg, 1 mg/kg PO every 12 hr, day 7, 2 hr after 13th dose, read-out: Mean [Brain]): 12.5 nM
- concentration at 2 h ([3]; brain, 1 mg/kg, 1 mg/kg PO single dose, 2 hr, read-out: Mean [Brain]): 16.6 nM
- concentration at 2 h ([3]; brain, 3 mg/kg, 3 mg/kg PO every 12 hr, day 7, 2 hr after 13th dose, read-out: Mean [Brain]): 39.6 nM
- concentration at 2 h ([3]; brain, 10 mg/kg, 10 mg/kg PO single dose, 2 hr, read-out: Mean [Brain]): 161 nM
- concentration at 2 h ([3]; brain, 30 mg/kg, 30 mg/kg PO single dose, 2 hr, read-out: Mean [Brain]): 213 nM
- concentration at 2 h ([3]; plasma, 1 mg/kg, 1 mg/kg PO every 12 hr, day 7, 2 hr after 13th dose, read-out: Mean [Plasma]): 33.9 nM
- concentration at 2 h ([3]; plasma, 3 mg/kg, 3 mg/kg PO every 12 hr, day 7, 2 hr after 13th dose, read-out: Mean [Plasma]): 123 nM
- concentration at 2 h ([3]; plasma, 10 mg/kg, 10 mg/kg PO single dose, 2 hr, read-out: Mean [Plasma]): 1150 nM
- concentration at 2 h ([3]; plasma, 30 mg/kg, 30 mg/kg PO single dose, 2 hr, read-out: Mean [Plasma]): 2330 nM
- Mean [Brain] [3, 4]: 0.02047 µM and 0.01429 µM and 0.01541 µM
